Reference: ChEMBL document CHEMBL4346754, “Further exploration of an N-aryl phenoxyethoxy pyridinone-based series of mGlu3 NAMs: Challenging SAR, enantiospecific activity and in vivo efficacy” (Bioorg Med Chem Lett, 2019)
Calls of active or inactive are those of the source. No cut-off for these calls is given here.

Key:
[1] = Permeability coefficient, Kp in rat brain; type: ADME, tissue-based
[2] = biological target: T1, Metabotropic glutamate receptor 3 (Rattus norvegicus, UniProt P31422); assay: Negative allosteric modulation of rat mGlu3R expressed in HEK cells harboring GIRK assessed as reduction in glutamate-induced thallium flux; type: cell-based
T1 sequence (P31422 whole entry): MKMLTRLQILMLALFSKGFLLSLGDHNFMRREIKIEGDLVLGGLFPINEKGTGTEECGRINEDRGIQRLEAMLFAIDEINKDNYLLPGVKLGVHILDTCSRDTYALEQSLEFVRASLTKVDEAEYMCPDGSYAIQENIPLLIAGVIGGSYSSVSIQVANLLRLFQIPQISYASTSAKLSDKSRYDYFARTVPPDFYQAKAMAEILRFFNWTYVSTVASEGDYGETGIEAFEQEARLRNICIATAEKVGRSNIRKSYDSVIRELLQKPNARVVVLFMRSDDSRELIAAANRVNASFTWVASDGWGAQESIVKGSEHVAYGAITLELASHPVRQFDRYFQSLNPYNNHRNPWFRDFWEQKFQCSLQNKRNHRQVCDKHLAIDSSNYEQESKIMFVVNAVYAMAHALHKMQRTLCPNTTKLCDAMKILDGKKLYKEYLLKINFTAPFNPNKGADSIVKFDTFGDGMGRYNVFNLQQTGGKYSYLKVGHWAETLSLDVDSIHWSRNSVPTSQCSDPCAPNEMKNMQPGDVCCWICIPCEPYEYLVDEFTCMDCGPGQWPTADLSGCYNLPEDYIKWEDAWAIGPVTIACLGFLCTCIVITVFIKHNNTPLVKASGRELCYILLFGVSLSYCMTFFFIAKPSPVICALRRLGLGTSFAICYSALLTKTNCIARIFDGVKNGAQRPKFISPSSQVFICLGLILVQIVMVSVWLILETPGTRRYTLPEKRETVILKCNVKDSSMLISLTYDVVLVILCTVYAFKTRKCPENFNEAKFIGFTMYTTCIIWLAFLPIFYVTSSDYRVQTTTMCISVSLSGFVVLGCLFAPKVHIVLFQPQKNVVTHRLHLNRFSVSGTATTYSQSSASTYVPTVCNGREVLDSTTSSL

[3] = Fraction unbound in rat brain homogenate; type: ADME, tissue-based
[4] = biological target: Metabotropic glutamate receptor 3 (Rattus norvegicus) (UniProt P31422); assay: Negative allosteric modulation of rat mGlu3R expressed in HEK293 cells co-expressing Galpha15 assessed as decrease in glutamate-induced calcium mobilization relative to glutamate; type: functional, cell-based; set-up: concentration or dose not given beside the values
Metabotropic glutamate receptor 3 (Rattus norvegicus), sequence (P31422 23-879 limits assumed): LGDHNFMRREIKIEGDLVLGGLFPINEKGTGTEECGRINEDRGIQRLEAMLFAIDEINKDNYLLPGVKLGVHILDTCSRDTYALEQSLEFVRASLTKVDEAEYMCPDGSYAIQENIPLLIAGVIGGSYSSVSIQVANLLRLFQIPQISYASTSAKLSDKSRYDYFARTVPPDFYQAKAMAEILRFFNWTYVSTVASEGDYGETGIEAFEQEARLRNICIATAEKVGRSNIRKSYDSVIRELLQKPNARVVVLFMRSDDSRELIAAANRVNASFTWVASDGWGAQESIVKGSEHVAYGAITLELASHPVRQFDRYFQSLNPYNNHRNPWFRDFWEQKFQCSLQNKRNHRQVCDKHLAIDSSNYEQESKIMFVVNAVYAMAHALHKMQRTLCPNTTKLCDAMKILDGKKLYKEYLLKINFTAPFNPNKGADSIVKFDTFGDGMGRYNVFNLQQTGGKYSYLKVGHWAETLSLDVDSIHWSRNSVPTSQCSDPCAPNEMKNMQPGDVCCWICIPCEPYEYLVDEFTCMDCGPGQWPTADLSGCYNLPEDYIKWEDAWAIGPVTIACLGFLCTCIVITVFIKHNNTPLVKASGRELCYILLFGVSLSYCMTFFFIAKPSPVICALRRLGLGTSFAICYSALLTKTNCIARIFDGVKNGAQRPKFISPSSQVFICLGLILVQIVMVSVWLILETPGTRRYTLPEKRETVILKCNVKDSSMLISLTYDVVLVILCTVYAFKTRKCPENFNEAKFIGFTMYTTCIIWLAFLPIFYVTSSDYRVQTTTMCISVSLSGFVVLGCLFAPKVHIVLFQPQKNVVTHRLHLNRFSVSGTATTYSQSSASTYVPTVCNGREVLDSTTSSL

[5] = Unbound brain to plasma concentration ratio in rat; type: ADME, cell-free; details: read-out: K(p,uu,brain)
[6] = Fraction unbound in rat plasma; type: ADME, cell-free
[7] = Plasma clearance in iv dosed rat; type: ADME, organism-based
Mus musculus [8] = assay: Antidepressant activity in ip dosed C57BL6/J mouse as […] in immobility time by tail suspension test; type: functional; details: read-out: MED
[9] = Drug level in mouse plasma at 10 mg/kg, ip; type: ADME, organism-based; details: in vivo
Mus musculus [10] = assay: Anti-anxiety activity in C57BL/6J mouse assessed as increase in total time spent in open arms at 10 mg/kg, ip treated for 15 mins by elevated zero maze assay; type: functional, organism-based
[11] = Brain to plasma permeability coefficient, Kp in mouse at 10 mg/kg, ip; type: ADME, organism-based
Mus musculus [12] = assay: Antidepressant activity in ip dosed C57BL6/J mouse as total time of immobile by tail suspension test relative to control; type: functional, organism-based
[13] = Drug level in mouse brain at 10 mg/kg, ip; type: ADME, organism-based; details: in vivo, read-out: Ct
[14] = Half life in iv dosed rat; type: ADME, organism-based; details: in vivo
Mus musculus [15] = assay: Anti-anxiety activity in C57BL/6J mouse assessed as reduction in number of marbles buried at 10 mg/kg, ip treated for 15 mins by marble burying assay; type: functional, organism-based
[16] = MRT in iv dosed rat; type: ADME, organism-based; details: in vivo
[17] = Volume of distribution at steady state in iv dosed rat; type: ADME, organism-based; details: in vivo, read-out: Vdss
Mus musculus [18] = assay: Anti-anxiety activity in C57BL/6J mouse assessed as increase in total number of open arm entries at 10 mg/kg, ip treated for 15 mins by elevated zero maze assay; type: functional, organism-based
Mus musculus [19] = assay: Anti-anxiety activity in C57BL/6J mouse assessed as increase in total time spent in open arms at 15 mg/kg, ip treated for 15 mins by elevated zero maze assay; type: functional, organism-based
Mus musculus [20] = assay: Anti-anxiety activity in C57BL/6J mouse assessed as reduction in number of marbles buried at 15 mg/kg, ip treated for 15 mins by marble burying assay; type: functional, organism-based
Mus musculus [21] = assay: Anti-anxiety activity in C57BL/6J mouse assessed as increase in total number of open arm entries at 15 mg/kg, ip treated for 15 mins by elevated zero maze assay; type: functional, organism-based
[22] = biological target: T1, Metabotropic glutamate receptor 3; assay: Negative allosteric modulation of rat mGlu3R expressed in HEK cells harboring GIRK assessed as reduction in glutamate-induced thallium flux preincubated for 5 mins followed by glutamate addition and measured after 2 mins by BTC-AM-dye based fluorescence assay; type: cell-based

C[C@H](COc1ccccc1)Oc1ccn(-c2cccc(Cl)c2)c(=O)c1
Kp [1]: 1.42 | IC50 [2]: 0.52 µM | fraction unbound [3]: 0.014 | Activity [4]: -11% | Kp uu [5]: 0.44 | fraction unbound [6]: 0.045

C[C@H](COc1ccccc1)Oc1ccn(-c2ccc(Cl)cc2)c(=O)c1
IC50 [2]: 2.7 µM | Activity [4]: -7.9%

CC(COc1ccccc1)COc1ccn(-c2cccc(Cl)c2)c(=O)c1 (single isomer, unassigned)
IC50 [2]: 1.4 µM | Activity [4]: -4.4%

C[C@H](COc1ccccc1)Oc1ccn(-c2ccc(F)cc2)c(=O)c1
IC50 [2]: 3 µM | Activity [4]: -2.2%

Cc1cccc(-n2ccc(OCC(C)COc3ccccc3)cc2=O)c1 (single isomer, unassigned; form 2) [listing 1 of 2 here]
IC50 [2]: 1.3 µM

Cc1cccc(-n2ccc(OCC(C)COc3ccccc3)cc2=O)c1 (single isomer, unassigned; form 2) [listing 2 of 2 here]
Activity [4]: -7.3%

Cc1cccc(-n2ccc(OCC(C)COc3ccccc3)cc2=O)c1 (racemic) [listing 1 of 2 here]
IC50 [2]: 3.2 µM

CC(COc1ccccc1)COc1ccn(-c2ccc(Cl)cc2)c(=O)c1 (single isomer, unassigned)
Kp [1]: 1.6 | IC50 [2]: 0.92 µM | fraction unbound [3]: 0.008 | Activity [4]: 36% | fraction unbound [6]: 0.01

O=c1cc(OCC(Oc2ccccc2)c2ccccc2)ccn1-c1ccc(F)cc1 (configuration not stated)
IC50 [2]: > 10 µM | Activity [4]: 4.9%

Cc1cccc(-n2ccc(OCC(C)COc3ccccc3)cc2=O)c1 (racemic) [listing 2 of 2 here]
Activity [4]: 4.6%

Cc1cccc(-n2ccc(OCC(C)COc3ccccc3)cc2=O)c1 (single isomer, unassigned; form 1) [listing 1 of 2 here]
Activity [4]: -6.6%

C[C@@H](COc1ccccc1)Oc1ccn(-c2ccc(F)cc2)c(=O)c1
IC50 [2]: > 10 µM | Activity [4]: 32%

C[C@H](COc1ccn(-c2ccc(F)cc2)c(=O)c1)Oc1ccccc1
IC50 [2]: > 10 µM | Activity [4]: 1.3%

Cc1cccc(-n2ccc(OC[C@@H](C)Oc3ccccc3)cc2=O)c1
IC50 [2]: > 10 µM | Activity [4]: 4.7%

Cc1cccc(-n2ccc(OCC(C)COc3ccccc3)cc2=O)c1 (single isomer, unassigned; form 1) [listing 2 of 2 here]
IC50 [2]: 3.1 µM

COc1ccc(-n2ccc(O[C@H](C)COc3ccccc3)cc2=O)cc1
IC50 [2]: > 10 µM | Activity [4]: 19%

O=c1cc(OCC2CCc3ccccc3O2)ccn1-c1ccc(F)cc1 (racemic)
IC50 [2]: 7.7 µM | Activity [4]: -1.7%

Cc1cccc(-n2ccc(OCC3CCc4ccccc4O3)cc2=O)c1 (racemic)
IC50 [2]: 4.1 µM | Activity [4]: -0.77%

CC(COc1ccccc1)COc1ccn(-c2ccc(F)cc2)c(=O)c1 (racemic)
IC50 [2]: 3.2 µM | Activity [4]: 6.6%

Cc1cccc(-n2ccc(O[C@H](C)COc3ccccc3)cc2=O)c1
Kp [1]: 1.6 | IC50 [2]: 1.5 µM | clearance [7]: 31 mL/min/kg | minimal effective dose (Mus musculus [8]): 10 mg/kg | concentration [9]: 272 nM | Activity (Mus musculus [10]): Active | fraction unbound [3]: 0.018 | Kp [11]: 1.42 | Activity (Mus musculus [12]): inactive | concentration [13]: 386 nM | Activity [4]: -4.3% | half-life [14]: 2 h | Activity (Mus musculus [15]): Active | MRT [16]: 2.05 h | Kp uu [5]: 0.53 | Vd [17]: 3.82 L/kg | Activity (Mus musculus [18]): Active | fraction unbound [6]: 0.055

CN(C)CCCC1(c2ccc(F)cc2)OCc2cc(C#N)ccc21 (configuration not stated)
Activity (Mus musculus [12]): inactive | Activity (Mus musculus [19]): Active | Activity (Mus musculus [20]): Active | Activity (Mus musculus [21]): Active

Cc1cccc(-n2ccc(OC[C@H](C)Oc3ccccc3)cc2=O)c1
IC50 [2]: 1.3 µM | Activity [4]: -7.4%

Cc1cccc(-n2ccc(OCC(Oc3ccccc3)c3ccccc3)cc2=O)c1 (configuration not stated)
IC50 [2]: > 10 µM | Activity [4]: 14%

C[C@@H](COc1ccn(-c2ccc(F)cc2)c(=O)c1)Oc1ccccc1
clearance [7]: 76.3 mL/min/kg | minimal effective dose (Mus musculus [8]): 10 mg/kg | IC50 [22]: 1.28 to 1.3 µM | Activity [4]: -5.7% | half-life [14]: 0.39 h | MRT [16]: 0.448 h | Vd [17]: 2.05 L/kg
